Values of other authors in patent US20080262249A1, “Psorospermin and Analogues” (priority 2004, published 2008).

Tests used:
[1] = biological target: T1, topoisomerase II-DNA complex (Drosophila melanogaster, UniProt P15348)
T1 sequence (P15348 1-1447): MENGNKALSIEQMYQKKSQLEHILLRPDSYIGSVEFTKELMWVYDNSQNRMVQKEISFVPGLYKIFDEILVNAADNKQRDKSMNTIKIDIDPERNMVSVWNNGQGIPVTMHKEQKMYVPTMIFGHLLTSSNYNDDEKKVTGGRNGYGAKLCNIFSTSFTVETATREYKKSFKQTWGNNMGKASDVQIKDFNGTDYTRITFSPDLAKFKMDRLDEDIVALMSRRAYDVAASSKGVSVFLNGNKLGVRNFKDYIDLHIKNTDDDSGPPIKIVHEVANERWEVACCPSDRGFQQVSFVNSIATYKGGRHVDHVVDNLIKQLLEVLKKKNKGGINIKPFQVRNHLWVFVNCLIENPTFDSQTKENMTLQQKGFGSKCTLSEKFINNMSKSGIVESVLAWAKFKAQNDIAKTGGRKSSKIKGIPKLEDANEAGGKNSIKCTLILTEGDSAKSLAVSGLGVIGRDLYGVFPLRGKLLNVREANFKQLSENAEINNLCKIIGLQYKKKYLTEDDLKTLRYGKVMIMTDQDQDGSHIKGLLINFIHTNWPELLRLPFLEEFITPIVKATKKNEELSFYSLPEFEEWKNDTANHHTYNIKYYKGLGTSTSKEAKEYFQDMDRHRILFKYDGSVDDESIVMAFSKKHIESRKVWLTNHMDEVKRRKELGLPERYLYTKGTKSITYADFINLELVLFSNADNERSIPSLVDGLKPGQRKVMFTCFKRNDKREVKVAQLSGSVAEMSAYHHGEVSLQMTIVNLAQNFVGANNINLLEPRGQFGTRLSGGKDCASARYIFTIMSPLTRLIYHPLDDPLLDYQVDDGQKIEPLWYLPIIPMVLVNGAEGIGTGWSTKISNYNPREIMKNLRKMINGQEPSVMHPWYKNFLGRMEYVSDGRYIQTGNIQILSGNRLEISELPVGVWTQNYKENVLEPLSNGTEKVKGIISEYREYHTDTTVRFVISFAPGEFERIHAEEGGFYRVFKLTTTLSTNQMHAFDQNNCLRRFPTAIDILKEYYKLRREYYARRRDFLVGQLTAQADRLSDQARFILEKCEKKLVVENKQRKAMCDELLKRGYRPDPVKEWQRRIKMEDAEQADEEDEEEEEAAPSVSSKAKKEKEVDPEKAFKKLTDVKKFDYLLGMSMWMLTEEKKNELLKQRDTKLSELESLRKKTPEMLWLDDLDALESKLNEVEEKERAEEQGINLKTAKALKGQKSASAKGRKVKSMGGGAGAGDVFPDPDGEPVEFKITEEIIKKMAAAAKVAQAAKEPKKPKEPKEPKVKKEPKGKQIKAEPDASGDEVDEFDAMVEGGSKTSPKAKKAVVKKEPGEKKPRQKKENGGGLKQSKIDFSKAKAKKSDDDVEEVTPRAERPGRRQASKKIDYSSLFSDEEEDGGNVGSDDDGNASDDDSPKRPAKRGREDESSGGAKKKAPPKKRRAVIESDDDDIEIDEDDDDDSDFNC

[2] = biological target: T1, topoisomerase II-DNA complex; remark: listed apart in the source

SMILES	effect of increasing topoisomerase II concentration on DNA alkylation ([1]; increasing topoisomerase II concentration)	reversibility of stimulated topoisomerase II-induced DNA cleavage ([2]; addition of excess salt)	psorospermin-induced DNA cleavage by topoisomerase II, maximum ([2]; site B, 10 μM drug concentration) [fold]	enhancement of psorospermin alkylation at site A by topoisomerase II ([1]; site A) [fold]	enhancement of psorospermin alkylation at site B by topoisomerase II ([1]; site B, guanine at +4′ position) [fold]
C/C=C\C1OC1(C)c1cc(=O)c2c(C)cc3c(c2o1)C(=O)c1c(O)c([C@H]2C[C@](C)(N(C)C)[C@@H](OC(C)=O)[C@@H](C)O2)cc([C@@H]2C[C@H](N(C)C)[C@@H](O)[C@@H](C)O2)c1C3=O (some centres unmarked) [pluramycin, reference compound]	inhibited	–	–	–	–
COc1cc2c(c3oc4c(O)cccc4c(=O)c13)C[C@H]([C@@]1(C)CO1)O2 [psorospermin]	–	slowly reversed	3	3	25
